From patent US20150284331A1 (priority 2012, published 2015)

How the values were obtained:
butyrylcholinesterase = target: T1, butyrylcholinesterase (Rattus norvegicus, UniProt Q9JKC1); experiment: inhibition of butyrylcholinesterase (rat serum); type: biochemical; settings: rat serum enzyme; final concentration 4×10−5 mol/L
T1 construct: Butyrylcholinesterase: rat serum; from tissue; host or cells: rat serum
Protocol: (§1) Sample processing: All samples were formulated as 10-2 mol/L solution by using 100% DMSO. 10-2 mol/L solution was used in microdetermination. 1 μL was taken to use in single tube experiment.
(§2) Solvent control: 0.4% DMSO was used in microdetermination. The inhibition ratio of the sample was obtained wherein the effect of solvent was deducted.
Butyrylcholinesterase: rat serum

acetylcholinesterase = target: T2, acetylcholinesterase (Rattus norvegicus, UniProt P37136); experiment: biochemical; type: biochemical; settings: rat cortex enzyme; final concentration 4×10−5 mol/L
T2 construct: Acetylcholinesterase: rat cortex; from tissue; host or cells: rat cortex
T2 sequence (P37136 32-614): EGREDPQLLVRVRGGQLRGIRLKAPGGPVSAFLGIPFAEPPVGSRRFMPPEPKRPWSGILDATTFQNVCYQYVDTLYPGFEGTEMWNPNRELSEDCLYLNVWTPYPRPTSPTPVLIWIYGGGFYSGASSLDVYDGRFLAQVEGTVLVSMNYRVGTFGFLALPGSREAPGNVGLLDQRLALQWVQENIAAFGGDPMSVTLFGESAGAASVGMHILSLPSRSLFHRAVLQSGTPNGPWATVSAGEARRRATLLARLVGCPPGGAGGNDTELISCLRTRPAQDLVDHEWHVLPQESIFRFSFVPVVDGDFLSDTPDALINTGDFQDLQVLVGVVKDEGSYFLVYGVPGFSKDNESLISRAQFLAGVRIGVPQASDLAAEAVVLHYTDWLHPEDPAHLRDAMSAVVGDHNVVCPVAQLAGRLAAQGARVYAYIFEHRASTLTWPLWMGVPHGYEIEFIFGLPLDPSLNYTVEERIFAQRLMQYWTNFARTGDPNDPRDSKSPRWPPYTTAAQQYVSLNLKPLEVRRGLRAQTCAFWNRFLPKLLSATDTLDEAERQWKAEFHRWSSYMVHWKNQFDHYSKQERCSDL
Protocol: as §1, §2
Acetylcholinesterase: rat cortex

T1 sequence (Q9JKC1 24-597): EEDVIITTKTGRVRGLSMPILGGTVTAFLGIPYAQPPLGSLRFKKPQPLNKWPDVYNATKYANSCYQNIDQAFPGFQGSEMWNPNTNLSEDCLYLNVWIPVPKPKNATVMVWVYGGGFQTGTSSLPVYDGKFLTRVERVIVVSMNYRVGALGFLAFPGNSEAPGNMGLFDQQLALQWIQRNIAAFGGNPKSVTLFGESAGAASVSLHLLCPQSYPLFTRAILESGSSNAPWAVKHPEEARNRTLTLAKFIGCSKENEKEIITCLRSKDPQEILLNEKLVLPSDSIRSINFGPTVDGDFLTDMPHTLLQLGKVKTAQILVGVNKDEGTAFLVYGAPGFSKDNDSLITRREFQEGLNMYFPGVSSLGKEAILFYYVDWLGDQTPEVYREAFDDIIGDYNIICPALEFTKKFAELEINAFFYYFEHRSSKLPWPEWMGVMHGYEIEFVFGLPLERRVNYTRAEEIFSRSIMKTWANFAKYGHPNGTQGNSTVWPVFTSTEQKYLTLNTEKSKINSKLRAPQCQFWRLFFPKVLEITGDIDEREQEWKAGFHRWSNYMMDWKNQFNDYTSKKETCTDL

Compound	butyrylcholinesterase inhibitory activity inhibition ratio (%) (butyrylcholinesterase)	acetylcholinesterase inhibitory activity inhibition ratio (%) (acetylcholinesterase)
COc1cc2c(cc1OC)C(=O)C(CC1(F)CCN(C(=O)c3ccccc3)CC1)C2 (stereo not drawn) [DC23, 2-((1-benzoyl-4-fluoropiperidin-4-yl)methyl)-5,6-dimethoxy-2,3-dihydro-1H-inden-1-one]	0.00	57.09
COc1cc2c(cc1OC)C(=O)C(CC1(F)CCN(Cc3cc(F)cc(F)c3)CC1)C2 (stereo not drawn) [DC27, 2-((1-(3,5-difluorobenzyl)-4-fluoropiperidin-4-yl)methyl)-5,6-dimethoxy-2,3-dihydro-1H-inden-1-one]	18.07	97.34
COc1cc2c(cc1OC)C(=O)C(CC1(F)CCN(Cc3cccc(C)c3)CC1)C2 (stereo not drawn) [DC29, 2-((4-fluoro-1-(3-methylbenzyl)piperidin-4-yl)methyl)-5,6-dimethoxy-2,3-dihydro-1H-inden-1-one]	64.92	97.78
COc1cc2c(cc1OC)C(=O)C(CC1(F)CCN(Cc3cccc(C(F)(F)F)c3)CC1)C2 (stereo not drawn) [DC30, 2-((4-fluoro-1-(3-(trifluoromethyl)benzyl)piperidin-4-yl)methyl)-5,6-dimethoxy-2,3-dihydro-1H-inden-1-one]	5.18	97.49
COc1cc2c(cc1OC)C(=O)C(CC1(F)CCN(CC3CCC3)CC1)C2 (stereo not drawn) [DC31, 2-((1-(cyclobutylmethyl)-4-fluoropiperidin-4-yl)methyl)-5,6-dimethoxy-2,3-dihydro-1H-inden-1-one]	35.06	85.82
COc1cc2c(cc1OC)C(=O)C(CC1(F)CCN(CC3CCCC3)CC1)C2 (stereo not drawn) [DC32, 2-((1-(cyclopentylmethyl)-4-fluoropiperidin-4-yl)methyl)-5,6-dimethoxy-2,3-dihydro-1H-inden-1-one]	46.68	90.10
COc1cc2c(cc1OC)C(=O)C(CC1(F)CCN(CC3CCCCC3)CC1)C2 (stereo not drawn) [DC33, 2-((1-(cyclohexylmethyl)-4-fluoropiperidin-4-yl)methyl)-5,6-dimethoxy-2,3-dihydro-1H-inden-1-one]	0.36	90.10
COc1cc2c(cc1OC)C(=O)C(CC1(F)CCN(CC3CCCCCC3)CC1)C2 (stereo not drawn) [DC34, 2-((1-(cycloheptylmethyl)-4-fluoropiperidin-4-yl)methyl)-5,6-dimethoxy-2,3-dihydro-1H-inden-1-one]	68.48	95.57
COc1cc2c(cc1OC)C(=O)C(CC1(F)CCN(Cc3cc(F)cc(F)c3F)CC1)C2 (stereo not drawn) [DC35, 2-((4-fluoro-1-(2,3,5-trifluorobenzyl)piperidin-4-yl)methyl)-5,6-dimethoxy-2,3-dihydro-1H-inden-1-one]	10.08	94.39
COc1cc2c(cc1OC)C(=O)C(CC1(F)CCN(Cc3ccc(-c4ccccc4)cc3)CC1)C2 (stereo not drawn) [DC36, 2-((1-([1,1′-biphenyl]-4-ylmethyl)-4-fluoropiperidin-4-yl)methyl)-5,6-dimethoxy-2,3-dihydro-1H-inden-1-one]	5.18	90.25
COc1cc2c(cc1OC)C(=O)C(CC1(F)CCN(Cc3ccccc3C#N)CC1)C2.Cl (stereo not drawn) [DC37, 2-((4-((5,6-dimethoxy-1-oxo-2,3-dihydro-1H-inden-2-yl)methyl)-4-fluoropiperidin-1-yl)methyl)benzonitrile hydrochloride]	20.80	81.98
COc1cc2c(cc1OC)C(=O)C(CC1(F)CCN(Cc3cccc(F)c3)CC1)C2.Cl (stereo not drawn) [DC38, 2-((4-fluoro-1-(3-fluorobenzyl)piperidin-4-yl)methyl)-5,6-dimethoxy-2,3-dihydro-1H-inden-1-one hydrochloride]	72.57	96.90
COc1cc2c(cc1OC)C(=O)C(CC1(F)CC3CCC(C1)N3Cc1cc(C)cc(C)c1)C2 (stereo not drawn) [DC44, 2-((8-(3,5-dimethylbenzyl)-3-fluoro-8-azabicyclo[3.2.1]octan-3-yl)methyl)-5,6-dimethoxy-2,3-dihydro-1H-inden-1-one]	34.15	95.27
COc1cc2c(cc1OC)C(=O)C(CC1(F)CC3CCC(C1)N3Cc1ccc(F)cc1)C2 (stereo not drawn) [DC45, 2-((3-fluoro-8-(4-fluorobenzyl)-8-azabicyclo[3.2.1]octan-3-yl)methyl)-5,6-dimethoxy-2,3-dihydro-1H-inden-1-one]	82.56	97.19
COc1cc2c(cc1OC)C(=O)C(CC1(F)CC3CCC(C1)N3Cc1ccc(C(C)(C)C)cc1)C2 (stereo not drawn) [DC47, 2-((8-(4-(tert-butyl)benzyl)-3-fluoro-8-azabicyclo[3.2.1]octan-3-yl)methyl)-5,6-dimethoxy-2,3-dihydro-1H-inden-1-one]	7.63	75.33
COC(=O)c1ccc(CN2C3CCC2CC(F)(CC2Cc4cc(OC)c(OC)cc4C2=O)C3)cc1 (stereo not drawn) [DC50, methyl 4-((3-((5,6-dimethoxy-1-oxo-2,3-dihydro-1H-inden-2-yl)methyl)-3-fluoro-8-azabicyclo[3.2.1]octan-8-yl)methyl)benzoate]	0.00	83.75
COc1cc2c(cc1OC)C(=O)C(CC1(F)CC3CCC(C1)N3Cc1cccc(Br)c1)C2 (stereo not drawn) [DC51, 2-((8-(3-bromobenzyl)-3-fluoro-8-azabicyclo[3.2.1]octan-3-yl)methyl)-5,6-dimethoxy-2,3-dihydro-1H-inden-1-one]	15.26	85.08
COc1cc2c(cc1OC)C(=O)C(CC1(F)CC3CCC(C1)N3Cc1ccccc1[N+](=O)[O-])C2 (stereo not drawn) [DC52, 2-((3-fluoro-8-(2-nitrobenzyl)-8-azabicyclo[3.2.1]octan-3-yl)methyl)-5,6-dimethoxy-2,3-dihydro-1H-inden-1-one]	0.73	93.80
COc1cc2c(cc1OC)C(=O)C(CC1(F)CC3CCC(C1)N3Cc1cc(F)c(F)cc1F)C2 (stereo not drawn) [DC57, 2-((3-fluoro-8-(2,4,5-trifluorobenzyl)-8-azabicyclo[3.2.1]octan-3-yl)methyl)-5,6-dimethoxy-2,3-dihydro-1H-inden-1-one]	1017	96.75
COc1cc2c(cc1OC)C(=O)C(CC1(F)CC3CCC(C1)N3Cc1ccccc1)C2 (stereo not drawn) [DC59, 2-((8-benzyl-3-fluoro-8-azabicyclo[3.2.1]octan-3-yl)methyl)-5,6-dimethoxy-2,3-dihydro-1H-inden-1-one]	69.03	86.12
COc1cc2c(cc1OC)C(=O)C(CC1(F)CC3CCC(C1)N3Cc1ccccc1F)C2 (stereo not drawn) [DC60, 2-((3-fluoro-8-(2-fluorobenzyl)-8-azabicyclo[3.2.1]octan-3-yl)methyl)-5,6-dimethoxy-2,3-dihydro-1H-inden-1-one]	64.31	95.13
COc1cc2c(cc1OC)C(=O)C(CC1(F)CC3CCC(C1)N3Cc1cccc(F)c1)C2 (stereo not drawn) [DC61, 2-((3-fluoro-8-(3-fluorobenzyl)-8-azabicyclo[3.2.1]octan-3-yl)methyl)-5,6-dimethoxy-2,3-dihydro-1H-inden-1-one]	61.04	96.75
COc1cc2c(cc1OC)C(=O)C(CC1(F)CC3CCC(C1)N3Cc1c(F)c(F)c(F)c(F)c1F)C2 (stereo not drawn) [DC68, 2-((3-fluoro-8-((perfluorophenyl)methyl)-8-azabicyclo[3.2.1]octan-3-yl)methyl)-5,6-dimethoxy-2,3-dihydro-1H-inden-1-one]	4.0	93.80
COc1cc2c(cc1OC)C(=O)C(CC1(F)CC3CCC(C1)N3Cc1cccc(C)c1)C2 (stereo not drawn) [DC69, 2-((3-fluoro-8-(3-methylbenzyl)-8-azabicyclo[3.2.1]octan-3-yl)methyl)-5,6-dimethoxy-2,3-dihydro-1H-inden-1-one]	58.86	97.49
